Experimental findings from US11180501B2, “Crystal form of β-lactamase inhibitor and preparation method therefor” (priority 2017, dated 2021) are described below.

In brackets after ≈: the same amount, converted by molar mass. Read-outs that look alike come from different tables or passages of the source. A value given as a limit tells only on which side of the number the result lay.

Data set [1] is described as follows: Hygroscopicity by dynamic vapor sorption (DVS). Format: physicochemical. As to the method:
1.4 Dynamic Vapor Sorption (DVS) Instrument model: SMS DVS Advantage dynamic vapor sorption analyzer Detection conditions: samples (10 mg to 15 mg) were placed in a DVS sample tray for detection. The detailed DVS parameters are as follows: Temperature: 25° C. Equilibrium: dm/dt=0.01%/min (shortest: 10 min, longest: 180 min) Drying: 120 minutes at 0% RH RH (%) gradient for testing: 10% RH (%) gradient range for testing: 0%-90%-0% The hygroscopicity was evaluated using the following scales: [table] Experimental Method: a sample (10-15 mg) was placed in a DVS sample tray for testing, and analyzed by dynamic vapor sorption (DVS) method.

The nature of data set [2]: Solubility test of the crystal form A. In kind it is physicochemical. Conditions: thermodynamic from solid, room temperature. As to the method:
Experimental Method: about 2.0 mg sample was weighed and placed into a 1.5 mL borosilicate glass bottle, followed by addition of the following solvents with a pipetting gun respectively, and appropriate ultrasonic treatment was performed for dissolving. The test was carried out at room temperature, and the dissolution was detected by naked eye.

Data set [3] is described as follows: Thermal gravimetric analysis (TGA). Format: physicochemical. As to the method: 1.3 Thermal Gravimetric Analyzer (TGA)
Instrument Model: TA Q5000 thermal gravimetric analyzer
Detection method: samples (2 mg to 5 mg) were placed in a TGA platinum crucible for detection, and heated from room temperature to 210° C. with a heating rate of 10° C./min under the condition of 25 mL/min N2.

Data set [4] concerns NDM-1 carbapenemase-producing Klebsiella Pneumoniae. Nature of the data set: In vitro synergistic inhibitory concentration (SIC) assay, broth microdilution MIC. In kind it is cell-based. The settings on record: NDM-1, 8 strains; for MIC50 / MIC90: Klebsiella pneumoniae; for MIC50 / MIC90 / MIC range: enzyme inhibitor fixed at 4 g/mL (so in the source); for drug resistance rate / sensitive rate: by the S/R criteria. The method, then:
(§1) The minimum inhibitory concentration (MIC) of the compound of formula (I) against clinically isolated carbapenemase-producing strains was determined by the broth microdilution method.
(§2) 1. Drug susceptibility test: the MIC of commonly used antibacterial drugs against clinically isolated bacteria was determined by the broth microdilution method according to the antimicrobial susceptibility test method described in the 2016 edition of the U.S. Clinical and Laboratory Standards Institute (CLSI) document.
(§3) 2. Strains: 8 KPC-2 carbapenemase-producing strains, 8 NDM-1 metalloenzyme-producing strains, 6 OXA carbapenemase-producing strains, and all strains were clinically isolated Klebsiella pneumoniae.
(§4) 4. Quality control strains: the quality control strains for the drug susceptibility test included Escherichia coli ATCC 25922 and ATCC 35218.
(Dilution methods test growth across graded concentrations, often in twofold steps.)

Data set [5] relates to OXA-181 carbapenemase-producing Klebsiella Pneumoniae. The data set is described as above. In kind it is cell-based. Conditions: OXA-181, 7 strains; for MIC50 / MIC90: Klebsiella pneumoniae; for drug resistance rate / sensitive rate: by the S/R criteria. As to the method:
as §1, §2
2. […]
as §4

Data set [6] relates to KPC-2 carbapenemase-producing Klebsiella Pneumoniae. The data set is described as above. Format: cell-based. The settings on record: for drug resistance rate / sensitive rate: by the S/R criteria; for MIC50 / MIC90: Klebsiella pneumoniae. The method, then: as §1, §2, §3, §4
Where [7] appears, read: enzyme inhibitor fixed at 4 g/mL (so in the source).
[8] abbreviates: KPC-2, 8 strains, enzyme inhibitor fixed at 4 g/mL (so in the source).

With `N=C(N)NOCCONC(=O)C1CCC2CN1C(=O)N2OS(=O)(=O)O` (centres unmarked), the “hygroscopic weight gain ΔW” value in data set [1] (DVS, 25° C./80% RH) was found to be 0.2910%. Further, in data set [1] (DVS, 25° C./80% RH), the hygroscopicity scale entry is “low hygroscopicity”. Moreover, in data set [1] (after DVS test), the “crystal form after DVS (XRPD)” value is “the crystal form has not changed”. In addition, the solubility (as a rule, the dissolved amount per volume that the medium holds) in data set [2] (aqueous with cosolvent or surfactant or cyclodextrin, Acetone-water (1:2)) was 20.5 to 34.2 mg/mL (≈ 53.6 to 89.4 mM); in data set [2] (aqueous with cosolvent or surfactant or cyclodextrin, Acetonitrile-water (1:1)) it was over 103 mg/mL; in data set [2] (aqueous with cosolvent or surfactant or cyclodextrin, Ethanol-water (1:1)), 10.1 to 20.2 mg/mL (≈ 26.4 to 52.8 mM); in data set [2] (aqueous with cosolvent or surfactant or cyclodextrin, Ethanol-water (3:1)), under 2 mg/mL; in data set [2] (aqueous with cosolvent or surfactant or cyclodextrin, Isopropanol-water (1:1)) it was 6.8 to 10.2 mg/mL (≈ 17.8 to 26.7 mM); in data set [2] (aqueous with cosolvent or surfactant or cyclodextrin, Methanol-water (1:1)) it was 4.1 to 5.2 mg/mL (≈ 10.7 to 13.6 mM). The solubility in data set [2] (aqueous with cosolvent or surfactant or cyclodextrin, Methanol-water (3:1)) was 2.1 to 2.6 mg/mL (≈ 5.49 to 6.8 mM); in data set [2] (organic solvent or mixture, 1,4-Dioxane), under 2.1 mg/mL; in data set [2] (organic solvent or mixture, 2-Methyltetrahydrofuran) it was under 2 mg/mL; in data set [2] (organic solvent or mixture, Acetone), under 1.9 mg/mL; in data set [2] (organic solvent or mixture, Acetonitrile), under 1.9 mg/mL; in data set [2] (organic solvent or mixture, Butanone) it was under 2 mg/mL. Also, the solubility in data set [2] (organic solvent or mixture, Cyclohexane) is under 2.1 mg/mL; in data set [2] (organic solvent or mixture, Ethanol) it was under 1.9 mg/mL; in data set [2] (organic solvent or mixture, Ethyl acetate) it was under 2 mg/mL; in data set [2] (organic solvent or mixture, Isopropanol), under 2 mg/mL; in data set [2] (organic solvent or mixture, Isopropyl acetate) it was under 2 mg/mL; in data set [2] (organic solvent or mixture, Methanol), under 1.9 mg/mL. Besides, the solubility in data set [2] (organic solvent or mixture, Methyl isobutyl ketone) is under 2 mg/mL; in data set [2] (organic solvent or mixture, Methyl tert-butyl ether) it was under 2 mg/mL; in data set [2] (organic solvent or mixture, Tetrahydrofuran), under 2 mg/mL; in data set [2] (organic solvent or mixture, Toluene), under 2 mg/mL; in data set [2] (organic solvent or mixture, n-Butanol), under 2 mg/mL; in data set [2] (organic solvent or mixture, n-Heptane), under 2 mg/mL. This compound also gave a solubility in data set [2] (Water) of 10.2 to 20.4 mg/mL (≈ 26.7 to 53.4 mM). In addition, the thermal stability result in data set [3] (TGA) is listed as “good thermal stability”. The TGA weight loss in data set [3] (heated to 194.61° C.) came to 0.5689%.

As for `C[C@H]1[C@H](NC(=O)/C(=N\OC(C)(C)C(=O)O)c2csc(N)n2)C(=O)N1S(=O)(=O)O` [Aztreonam], the MIC50 (in general, the lowest concentration that inhibits either 50% of growth or 50% of the strains tested, depending on the study) in data set [4] was determined as 64 mg/L.

As for `CC(C)(O/N=C(\C(=O)N[C@@H]1C(=O)N2C(C(=O)[O-])=C(C[n+]3ccccc3)CS[C@H]12)c1csc(N)n1)C(=O)O` [Ceftazidime], the MIC50 in data set [5] (setting [7]), in data set [4] and in data set [6] (setting [8]) was over 128 mg/L each time. The MIC90 (in general, the lowest concentration that inhibits either 90% of growth or 90% of the strains tested, depending on the study) in data set [5] (setting [7]) is over 128 mg/L; in data set [4], over 128 mg/L; in data set [6] (KPC-2, 8 strains, enzyme inhibitor fixed at 4 g/mL (so in the source), read-out: MIC90), over 128 mg/L. The drug resistance rate came out at 100 in data set [5]; 100 in data set [4]; 100 in data set [6] (KPC-2, 8 strains). For the same compound, the sensitive rate is on record as 0 in data set [5]; 0 in data set [4]; 0 in data set [6] (KPC-2, 8 strains). For the same compound, the MIC range in data set [4] was over 128 mg/L; in data set [6] (setting [8]), 64 to 128 mg/L.

With `C[C@@H](O)[C@H]1C(=O)N2C(C(=O)O)=C(S[C@@H]3CN[C@H](C(=O)N(C)C)C3)[C@H](C)[C@H]12` [Meropenem], the MIC50 in data set [5] (setting [7]) came to 0.5 mg/L; in data set [4] it was 4 mg/L; in data set [6] (setting [8]) it was 64 mg/L. The MIC90 in data set [5] (setting [7]) worked out at 2 mg/L; in data set [4], 32 mg/L; in data set [6], 128 mg/L. Further, the drug resistance rate was found to be 0 in data set [5]; 75 in data set [4]; 100 in data set [6] (KPC-2, 8 strains). The sensitive rate in data set [5] stood at 85.7; in data set [4], 0; in data set [6] (KPC-2, 8 strains) it was 0. The MIC range is 0.5 to 2 mg/L in data set [5] (setting [7]) and 2 to 32 mg/L in data set [4].
